# Laboratory results published in patent US9932637B2, “Genetic polymorphisms associated with cardiovascular disorders and drug response, methods of detection and uses thereof” (CELERA CORPORATION, priority 2003, dated 2018).
# Test system: patients with prior myocardial infarction (CARE study)
# Test: CARE: association of SNPs with pravastatin treatment in cardiovascular events prevention (logistic regression, odds ratio pravastatin vs placebo by genotype; Table 8)
# Format: in vivo, human
# Text: In order to identify genetic markers associated with acute coronary events (e.g. MI, stroke, unstable angina, congestive heart failure, etc.) or response to statin treatment for the prevention of coronary events, samples from the Cholesterol and Recurrent Events (CARE) study (a randomized multicentral double-blinded trial on secondary prevention of acute coronary events with pravastatin) (Sacks et al., 1991, Am. J. Cardiol. 68: 1436-1446) were genotyped. A well-documented myocardial infarction (MI) was one of the enrollment criteria for entry into the CARE study. Patients were enrolled in the CARE trial from 80 participating study centers. […] Patients were randomized to receive either 40 mg of pravastatin once daily or a matching placebo. The primary endpoint of the trial was death from coronary heart disease and the median duration of follow-up was 5.0 years (range, 4.0 to 6.2 years). […] Secondary endpoints of other related cardiovascular or metabolic disease events, and changes in clinical variables were also recorded in pravastatin-treated and placebo groups. All individuals included in the study had signed a written informed consent form and the study protocol was approved by the respective Institutional Review Boards (IRBs).
# For genotyping SNPs in CARE patient samples, DNA was extracted from blood samples using conventional DNA extraction methods such as the QIA-amp kit from Qiagen. Genotypes were obtained on an ABI PRISM® 7900HT Sequence Detection PCR system (Applied Biosystems, Foster City, Calif.) by kinetic allele-specific PCR, similar to the method described by Germer et al. (Germer S., Holland M. J., Higuchi R. 2000, Genome Res. 10: 258-266).
# Statistical analysis for association of SNPs with pravastatin treatment in cardiovascular events prevention (Table 8) was carried out using an overall logistic regression model that included an intercept, a parameter for the effect of a genotype containing two rare alleles versus a genotype containing no rare alleles, a parameter for the effect of a genotype containing one rare allele versus a genotype containing no rare alleles, a parameter for the effect of use of pravastatin versus the use of placebo, and parameters for the interaction effects between SNP genotypes and pravastatin use. The test of the overall model is a chi-square test with two degrees of freedom for analyses containing all three genotypes, and one degree of freedom for analyses containing two genotypes.
# Effect sizes were estimated through odds ratios (pravastatin group versus placebo) for carriers of each genotype (groups of 0, 1, and 2 minor allele carriers). The effect was considered to be significant if p-value for testing whether any of the interactions between SNP genotypes and pravastatin use were <0.05. […] Odds ratios less than one indicate that the specific SNP allele has a protective effect and odds ratios greater than one indicate that the specific SNP allele has an adverse effect.
# [1] = IL9 hCV3275199, All Patients, 0 Rare Alleles, Prava arm
# [2] = IL9 hCV3275199, All Patients, 1 Rare Allele, Prava arm
# [3] = IL9 hCV3275199, All Patients, 2 Rare Alleles, Prava arm
# [4] = IL12A hCV16053900, All Patients, 0 Rare Alleles, Prava arm
# [5] = IL12A hCV16053900, All Patients, 1 Rare Allele, Prava arm
# [6] = IL12A hCV16053900, All Patients, 2 Rare Alleles, Prava arm
# [7] = KLK14 hCV16044337, All Patients, 0 Rare Alleles, Prava arm
# [8] = KLK14 hCV16044337, All Patients, 1 Rare Allele, Prava arm
# [9] = KLK14 hCV16044337, All Patients, 2 Rare Alleles, Prava arm
# [10] = LAMA5 hCV25629492, All Patients, 0 Rare Alleles, Prava arm
# [11] = LAMA5 hCV25629492, All Patients, 1 Rare Allele, Prava arm
# [12] = LAMA5 hCV25629492, All Patients, 2 Rare Alleles, Prava arm
# [13] = LRP8 hCV190754, All Patients, Hosp. for Unstable Angina
# [14] = MARK3 hCV25926771, All Patients, 0 Rare Alleles, Prava arm
# [15] = MARK3 hCV25926771, All Patients, 1 Rare Allele, Prava arm
# [16] = MJD hCV16189421, All Patients, 0 Rare Alleles, Prava arm
compound,measurement,setting,value
CC[C@H](C)C(=O)O[C@H]1C[C@H](O)C=C2C=C[C@H](C)[C@H](CC[C@@H](O)C[C@@H](O)CC(=O)O)[C@H]21 [pravastatin],"Nonfatal MI (Probable/Definite), n/total (%)",[1],(10.4%)
same,"Nonfatal MI (def & prob), n/total (%)",[1],(9.8%)
same,"Fatal/Nonfatal MI (def & prob), n/total (%)",[2],(6.0%)
same,"MI (Fatal/Nonfatal), n/total (%)",[2],(6.0%)
same,"Nonfatal MI (Probable/Definite), n/total (%)",[2],(5.7%)
same,"Nonfatal MI (def & prob), n/total (%)",[2],(5.7%)
same,"Fatal/Nonfatal MI (def & prob), n/total (%)",[3],(6.1%)
same,"MI (Fatal/Nonfatal), n/total (%)",[3],(6.1%)
same,"Nonfatal MI (Probable/Definite), n/total (%)",[3],(6.1%)
same,"Nonfatal MI (def & prob), n/total (%)",[3],(6.1%)
same,"Coronary Artery Bypass Graft, n/total (%)",[4],(4.9%)
same,"Coronary Artery Bypass or Revascularization, n/total (%)",[4],(11.0%)
same,"Coronary Artery Bypass Graft, n/total (%)",[5],(8.9%)
same,"Coronary Artery Bypass or Revascularization, n/total (%)",[5],(16.2%)
same,"Coronary Artery Bypass Graft, n/total (%)",[6],(7.2%)
same,"Coronary Artery Bypass or Revascularization, n/total (%)",[6],(14.8%)
same,"Coronary Artery Bypass Graft, n/total (%)",[7],(8.7%)
same,"Definite Nonfatal MI, n/total (%)",[7],(7.1%)
same,"Fatal CHD/Definite Nonfatal MI, n/total (%)",[7],(9.5%)
same,"Fatal/Nonfatal MI (def & prob), n/total (%)",[7],(9.8%)
same,"MI (Fatal/Nonfatal), n/total (%)",[7],(10.1%)
same,"Nonfatal MI (Probable/Definite), n/total (%)",[7],(9.7%)
same,"Nonfatal MI (def & prob), n/total (%)",[7],(9.1%)
same,"Coronary Artery Bypass Graft, n/total (%)",[8],(6.2%)
same,"Definite Nonfatal MI, n/total (%)",[8],(7.2%)
same,"Fatal CHD/Definite Nonfatal MI, n/total (%)",[8],(9.9%)
same,"Fatal/Nonfatal MI (def & prob), n/total (%)",[8],(10.0%)
same,"MI (Fatal/Nonfatal), n/total (%)",[8],(10.2%)
same,"Nonfatal MI (Probable/Definite), n/total (%)",[8],(9.4%)
same,"Nonfatal MI (def & prob), n/total (%)",[8],(9.1%)
same,"Coronary Artery Bypass Graft, n/total (%)",[9],(5.6%)
same,"Definite Nonfatal MI, n/total (%)",[9],(4.4%)
same,"Fatal CHD/Definite Nonfatal MI, n/total (%)",[9],(5.6%)
same,"Fatal/Nonfatal MI (def & prob), n/total (%)",[9],(6.9%)
same,"MI (Fatal/Nonfatal), n/total (%)",[9],(6.9%)
same,"Nonfatal MI (Probable/Definite), n/total (%)",[9],(6.3%)
same,"Nonfatal MI (def & prob), n/total (%)",[9],(6.3%)
same,"Definite Nonfatal MI, n/total (%)",[10],(8.8%)
same,"Fatal/Nonfatal MI (def & prob), n/total (%)",[10],(12.1%)
same,"Nonfatal MI (def & prob), n/total (%)",[10],(11.3%)
same,"Definite Nonfatal MI, n/total (%)",[11],(5.4%)
same,"Fatal/Nonfatal MI (def & prob), n/total (%)",[11],(7.7%)
same,"Nonfatal MI (def & prob), n/total (%)",[11],(7.4%)
same,"Definite Nonfatal MI, n/total (%)",[12],(4.1%)
same,"Fatal/Nonfatal MI (def & prob), n/total (%)",[12],(7.7%)
same,"Nonfatal MI (def & prob), n/total (%)",[12],(5.4%)
same,"Hosp. for Unstable Angina, n/total (%)","LRP8 hCV190754, All Patients, 0 Rare Alleles, Prava, n/total 98/560",(17.5%)
same,"Hosp. for Unstable Angina, n/total (%)","LRP8 hCV190754, All Patients, 1 Rare Allele, Prava, n/total 100/712",(14.0%)
same,"Hosp. for Unstable Angina, n/total (%)","LRP8 hCV190754, All Patients, 2 Rare Alleles, Prava, n/total 32/244",(13.1%)
same,"Prava vs. Placebo Odds Ratio, 0 Rare Alleles",[13],1.21
same,"Prava vs. Placebo Odds Ratio, 1 Rare Alleles",[13],0.70
same,"Prava vs. Placebo Odds Ratio, 2 Rare Alleles",[13],0.54
same,"Definite Nonfatal MI, n/total (%)",[14],(6.7%)
same,"Fatal CHD/Definite Nonfatal MI, n/total (%)",[14],(9.9%)
same,"Definite Nonfatal MI, n/total (%)",[15],(7.0%)
same,"Fatal CHD/Definite Nonfatal MI, n/total (%)",[15],(9.1%)
same,"Fatal/Nonfatal MI (def & prob), n/total (%)",[16],(8.4%)
same,"Hosp. for Unstable Angina, n/total (%)",[16],(14.4%)
